The numbers were not newly measured in patent publication US20050079205A1, “Oleamide-containing composition for animal consumption” (priority 2003, published 2005), which cites them from elsewhere.

The subject of one data set is Holstein cows. Conditions: 4.2% oleamide through feed or ruminal cannula; cited from earlier work.
Another data set has as its system lactating Jersey cows. Conditions: feed supplemented with up to 3.5% oleamide; cited from earlier work.

On to `CCCCCCCC/C=C\CCCCCCCC(N)=O` [oleamide, cis-9-octadecenioamide], for which the dry matter intake entry in the data set on Holstein cows and with lactating Jersey cows was “reduction in dry matter intake” throughout.
